Consider 7 compounds from article PMC11375813 (ACS Omega, 2024).

Data set [1] in a line: Plasma / in vivo drug concentrations in humans (literature pharmacokinetics). To be noted: using a molecular weight of 325.39.
For data set [2], the target named is T1, human AChE (Homo sapiens, UniProt P22303).
T1 construct: purchased Sigma C1682
Put plainly: In vitro single-concentration screening, AChE activity (adapted Ellman assay). The format is biochemical. The following applies: read-out: inhibition of AChE activity. As for the experimental part:
(§1) All of the drugs were tested at a final concentration of 100 μM.
(§2) The screening of the in silico hits toward the BChE and AChE enzymatic activity was done by an adapted high-throughput assay version of Ellman′s colorimetric assay.[59],[60] The reagents, butyrylthiocholine iodide (BTC), acetylthiocholine iodide (ATC), and 5,5′-dithiobis(2-nitrobenzoic acid) (DTNB), were purchased from Sigma-Aldrich (St. Louis, MO). The modified assay details are as previously described.[6],[44] The main modification concerned the high-throughput adaptation of the assay for use in 384-well plates. Briefly, 25 μL/well of a 1:450 diluted solution of pooled human plasma and 1:768 diluted (3.5 ng/mL final concentration) purified recombinant human AChE protein (Sigma, Cat no. C1682) was used for measurement of the BChE and AChE activity, respectively. These enzymes’ concentrations were used since they are representative of the activity of these enzymes in the human cerebrospinal fluid (CSF).
(§3) To the control wells, the vehicle solution was added to get the reference enzyme activity (100%). (2) Then, 25 μL of a working solution of BChE or AChE was added to all wells. The plate was then incubated for 10–30 min at room temperature. (3) The reaction was then started by adding 25 μL of a cocktail mix prepared in Na/K phosphate buffer to all wells, containing DTNB (final concentration 0.4 mM) and BTC (final concentration 1 mM) or ATC (final concentration 0.5 mM). The changes in the absorbance were monitored at 412 nm wavelength for 15–20 min at 1 min intervals, using a microplate spectrophotometer reader (Infinite M1000, Tecan). The rate of the enzyme activity was determined from the slope of the linear part of the kinetic reaction curves. In all steps, the working solution concentrations were 3 times of the final concentrations of each component in the final volume of 75 μL in each well. The final screening concentration of the compounds was 100 μM. […]
For orientation: Ellman's reagent forms a yellow product with free thiols.

Data set [3] concerns the target T1, human AChE. Put plainly: IC50 and enzyme inhibition kinetic analyses on AChE. The format is biochemical.
Excerpt: as §2
(§4) For BChE, the final BTC concentrations in the wells ranged from 5 mM to […], which were prepared as a 2-fold serial dilution. For AChE, the final ATC concentrations in the wells ranged from 0.5 mM to […], prepared as a 2-fold serial dilution series.
(§5) In all enzyme inhibition kinetic assays, the concentrations of AChE and BChE were chosen so that the enzyme activities were representative of the activity of these enzymes in the human CSF, which is about 20 and 10 nmol/min/mL CSF for AChE and BChE, respectively.[49]
(§6) For the enzyme inhibition kinetic analyses, the order of steps was as follows: (1) 25 μL/well of the compound or the vehicle control was added in quadruplicates, with respect to each compound concentration, in a 384-well plate. (2) Then, 25 μL of each substrate concentration was added to the wells in quadruples. (3) The reaction was then started by adding 25 μL of a master mix to all wells, containing the enzyme working solution and DTNB. The final concentration of the enzyme and DTNB as well as the buffer composition was the same as mentioned above for the screening assay. Then, the plate was immediately placed in the microplate spectrophotometer reader (Infinite M1000, Tecan) and the changes in the absorbance were continuously monitored at 2 min intervals for 15–20 min at 412 nm wavelength. The rate of the enzyme activity was extracted as the slope of the initial linear part of the kinetic reaction curves.
The data were then transferred and processed using GraphPad Prism 9 analysis software.[15] The half-maximal inhibitory concentration (IC50) values were calculated by plotting the percentage enzyme activity versus the log concentrations of the compound. The inhibitory constant (Ki) values were determined from the enzyme inhibition kinetic analyses using the nonlinear regression function in the software. A statistical comparison of the ligand’s mode of activity was also done using GraphPad software between the competitive equation versus the mixed-competitive, noncompetitive, and uncompetitive equations.[61] A competitive mode of action means that the inhibitor reversibly binds to the substrate′s binding site. Thus, the inhibition of the enzyme is modifiable by a high concentration of the substrate via displacement. […] In the case of an uncompetitive mode of activity, the inhibitor has an affinity to the enzyme–substrate complex, but not the free enzyme. When the behavior of a ligand is not fully uniform, and the mixed-competitive fitting equation is statistically the best fitting option, the ligand is called a mixed-competitive one. This is determined through a general equation that includes the other three modes of actions. Through this equation, the software provides an additional parameter, called α, which determines the mechanism of action of the inhibitor. For instance, when α is equal to one, the inhibitor′s affinity for the free enzyme and the enzyme–substrate complex is equal, i.e., the inhibitor behaves mainly noncompetitively. […] When α is very large, the inhibitor behaves mainly as a competitive ligand. […]

The target in data set [4] is T2, human plasma BChE (Homo sapiens, UniProt P06276).
T2 construct: 25 μL/well of a 1:450 diluted solution of pooled human plasma; from tissue; host or cells: pooled human plasma, diluted 1:450, BChE not purified
Put plainly: biochemical. The following applies: for Ki: inhibition constant (Ki) against human BChE.
Excerpt: as §2, §4, §5, §6
The data were then transferred and processed using GraphPad Prism 9 analysis software.[15] The half-maximal inhibitory concentration (IC50) values were calculated by plotting the percentage enzyme activity versus the log concentrations of the compound. The inhibitory constant (Ki) values were determined from the enzyme inhibition kinetic analyses using the nonlinear regression function in the software. A statistical comparison of the ligand’s mode of activity was also done using GraphPad software between the competitive equation versus the mixed-competitive, noncompetitive, and uncompetitive equations.[61] A competitive mode of action means that the inhibitor reversibly binds to the substrate′s binding site. Thus, the inhibition of the enzyme is modifiable by a high concentration of the substrate via displacement. […] When the behavior of a ligand is not fully uniform, and the mixed-competitive fitting equation is statistically the best fitting option, the ligand is called a mixed-competitive one. This is determined through a general equation that includes the other three modes of actions. Through this equation, the software provides an additional parameter, called α, which determines the mechanism of action of the inhibitor. For instance, when α is equal to one, the inhibitor′s affinity for the free enzyme and the enzyme–substrate complex is equal, i.e., the inhibitor behaves mainly noncompetitively. […] When α is very large, the inhibitor behaves mainly as a competitive ligand. A very small α (but not <0) is indicative of an uncompetitive mode of action.[61]

In data set [5] the target is T2, human plasma BChE. Put plainly: biochemical. The format is biochemical. The following applies: single concentration 100 μM. The protocol:
as §1, §2, §3

The test system of another data set is human recombinant ChAT. Put plainly: In vitro single-concentration screening against choline acetyltransferase. The format is biochemical. The following applies: single concentration 100 μM. The protocol:
as §1

For a further data set, the system named is BChE. Also on record: method as in PMID 17196712, PMID 16868793, PMID 20205672, PMID 19199870. To be noted: at therapeutic concentrations; cited from earlier work.
Data set [6] relates to muscarinic, histaminergic, α1-adrenergic, serotonergic, dopaminergic, and opioid receptors. To be noted: radioligand binding; cited from earlier work.
The conditions of data set [7]: cited from earlier work.
Data set [8] concerns the target norepinephrine uptake carrier. The following applies: read-out: Ki, norepinephrine uptake carrier; radioligand binding; cited from earlier work.
For the next data set, the system named is human BChE. The following applies: cited from earlier work.
The conditions of data set [9]: cited from earlier work. This is another data set of the same source.
Where [10] appears, read: high substrate range, up to 5 mM.
The mark [11] stands for this setting: human, multiple doses of 30 mg twice daily.
Where [12] appears, read: micromolar substrate range (up to 0.5 mM).

“And” between values parts separate entries of the source, which are not always exact repeats. Equal values may be shown once. Read-outs that look alike come from different tables or passages of the source.

T1 sequence (P22303 32-614): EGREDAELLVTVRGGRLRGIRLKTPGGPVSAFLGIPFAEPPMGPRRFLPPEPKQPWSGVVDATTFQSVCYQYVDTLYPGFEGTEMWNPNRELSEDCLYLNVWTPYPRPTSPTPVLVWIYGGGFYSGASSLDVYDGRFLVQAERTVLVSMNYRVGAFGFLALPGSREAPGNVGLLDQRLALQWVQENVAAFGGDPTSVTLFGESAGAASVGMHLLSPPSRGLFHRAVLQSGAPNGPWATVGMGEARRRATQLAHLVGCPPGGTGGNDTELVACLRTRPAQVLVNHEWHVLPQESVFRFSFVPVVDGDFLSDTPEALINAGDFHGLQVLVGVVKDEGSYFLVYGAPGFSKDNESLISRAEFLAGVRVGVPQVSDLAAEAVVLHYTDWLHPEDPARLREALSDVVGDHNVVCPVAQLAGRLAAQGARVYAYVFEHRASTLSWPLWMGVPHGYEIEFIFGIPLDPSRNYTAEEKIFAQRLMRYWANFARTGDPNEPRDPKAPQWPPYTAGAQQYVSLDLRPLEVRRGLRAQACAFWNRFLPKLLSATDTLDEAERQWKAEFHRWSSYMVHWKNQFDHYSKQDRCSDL
T2 sequence (P06276 29-602): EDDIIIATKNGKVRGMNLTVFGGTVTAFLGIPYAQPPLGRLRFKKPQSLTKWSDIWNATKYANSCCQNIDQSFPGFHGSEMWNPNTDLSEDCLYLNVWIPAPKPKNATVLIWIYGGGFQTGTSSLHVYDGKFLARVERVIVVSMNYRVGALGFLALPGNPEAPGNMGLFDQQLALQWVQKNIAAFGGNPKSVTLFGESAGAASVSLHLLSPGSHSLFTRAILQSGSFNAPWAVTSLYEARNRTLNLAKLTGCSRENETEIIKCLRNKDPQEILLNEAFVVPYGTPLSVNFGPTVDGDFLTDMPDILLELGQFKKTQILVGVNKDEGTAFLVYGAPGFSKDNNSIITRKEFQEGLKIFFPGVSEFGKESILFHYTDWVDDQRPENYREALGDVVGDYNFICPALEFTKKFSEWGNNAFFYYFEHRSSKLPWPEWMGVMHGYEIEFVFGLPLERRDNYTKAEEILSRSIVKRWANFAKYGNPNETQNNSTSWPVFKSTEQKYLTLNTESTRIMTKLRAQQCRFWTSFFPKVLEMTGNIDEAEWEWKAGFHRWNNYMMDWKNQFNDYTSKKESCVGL

Broadly, the inhibition is the drop in the measured response relative to a control, in per cent. As a reminder, the Ki is a measure of affinity in units of concentration, obtained from inhibition or displacement. For the compound `CN(C)CCCC1(c2ccc(F)cc2)OCc2cc(C#N)ccc21` (stereo not drawn) [citalopram], the “molar concentration (maximum, from ng/mL)” value in [1] is on record as “at most 0.86 μM”. The inhibition at 100 µM is roughly 60% on human AChE [2] and roughly 55% against human plasma BChE [5]. Moreover, the Ki at human AChE [3] stood at 58.8 µM; at human plasma BChE [4] (setting [10]) it was 42 µM. Also, the “mode of inhibition of AChE” value at human AChE [3] (enzyme inhibition kinetics) is “noncompetitive”. Moreover, the “BChE potency ratio Ki Escit / Ki Cit” value at human plasma BChE [4] (203/42) is given as 4.8. The “mode of inhibition of BChE” value on human plasma BChE [4] (setting [10]) was “mixed-competitive”. In the data set with human recombinant ChAT, the “effect on the activity of human ChAT” value is recorded as “neither duloxetine nor citalopram/escitalopram affected the activity”.

For `COc1cc2c(cc1OC)C(=O)C(CC1CCN(Cc3ccccc3)CC1)C2` (stereo not drawn) [donepezil], the “inhibitory effect on BChE” value with BChE was “completely devoid of any inhibitory effect”.

As usually defined, the Cmax is the peak of the concentration-time curve. In general, IC50 refers to the midpoint of a concentration-inhibition curve. Turning to `CNCC[C@H](Oc1cccc2ccccc12)c1cccs1` [duloxetine], the “affinity for muscarinic, histaminergic, α1-adrenergic, serotonergic, dopaminergic, and opioid receptors” value in data set [6] is on record as “lacks the pharmacologically relevant affinity”. The inhibition at 100 µM at human AChE [2] was roughly 35%. The “maximum steady-state plasma concentration” value in data set [7] (setting [11]) is recorded as 142 nM. For the same compound, in [7] (setting [11]), the “minimum steady-state plasma concentration” value is reported as 84 nM. For the same compound, in data set [7] (normal dosages), the “normal in vivo concentration range in human patients” value is 100 to 400 nM. Moreover, the Cmax in data set [7] (read-out: plasma Cmax, human, single dose of 30–90 mg) is 70 to 180 nM. For the same compound, at human AChE [3] (enzyme inhibition kinetics), the “mode of inhibition of AChE” value is “mixed-competitive”. Besides, the Ki at human AChE [3] (inhibition constant (Ki) against human AChE, nonlinear regression, enzyme inhibition kinetics) is 65.5 µM and ~56.5 µM; at human plasma BChE [4] (setting [10]), ~0.351 µM and 0.35 µM; on human plasma BChE [4] (setting [12]), 0.21 µM; in data set [8], 0.0021 µM. In addition, the IC50 on human plasma BChE [4] was 9.7 µM; in the data set with human BChE (read-out: IC50 against human BChE, substrate and its concentration not reported) it was 1.2 µM. The “times as potent as physostigmine in inhibiting BChE” value on human plasma BChE [4] (Ki 210 nM vs […] nM) is given as 4 times. Also, the “mode of inhibition of BChE” value on human plasma BChE [4] (setting [10]) and at human plasma BChE [4] (setting [12]) was “competitive” each time. Besides, the “inhibition of human BChE” value with human BChE (10 μM) is recorded as “over 70%”. Moreover, in [9] (8-week double-blind placebo-controlled trial), the “effect on cognition in the elderly” value was “improved cognition”. In addition, in data set [9] (12-week study), the “cognitive effect in patients with major depressive disorders” value is given as “significant cognitive improvements across several domains”. Besides, the “risk of developing dementia compared to citalopram-treated patients” value in data set [9] (pharmacoepidemiologic study, patients with depression) is “significantly lower risk of developing dementia”. Moreover, on human plasma BChE [5], the “inhibition of plasma BChE activity” value is “fully inhibited”. Besides, in the data set on human recombinant ChAT, the “effect on the activity of human ChAT” value was “neither duloxetine nor citalopram/escitalopram affected the activity”.

On to `CN(C)CCC[C@@]1(c2ccc(F)cc2)OCc2cc(C#N)ccc21` [escitalopram], for which, in data set [1], the “molar concentration (maximum, from ng/mL)” value is recorded as “at most 0.86 μM”. The inhibition at 100 µM is roughly 60% at human AChE [2] and roughly 10% on human plasma BChE [5]. Besides, the Ki is 32.8 µM at human AChE [3] and 203 µM on human plasma BChE [4] (setting [10]). Further, the “AChE potency ratio Ki Cit / Ki Escit” value on human AChE [3] (59/33) is on record as 1.8. Also, the “mode of inhibition of AChE” value on human AChE [3] (enzyme inhibition kinetics) is recorded as “mixed-competitive”. The “mode of inhibition of BChE” value at human plasma BChE [4] (setting [10]) is given as “mixed-competitive”. The “effect on the activity of human ChAT” value with human recombinant ChAT was “neither duloxetine nor citalopram/escitalopram affected the activity”.

Take `CCN(CC)C(C)CN1c2ccccc2Sc2ccccc21` (stereo not drawn) [ethopropazine]: the “mode of inhibition of BChE” value at human plasma BChE [4] (setting [10]) is on record as “mixed-competitive”; at human plasma BChE [4] (setting [12]) it was “Mixed-competitive inhibitor”. Besides, the Ki at human plasma BChE [4] (setting [10]) is 0.15 µM; on human plasma BChE [4] (low substrate concentrations (up to 0.5 mM)), 0.154 µM; on human plasma BChE [4] (setting [12]), roughly 0.155 µM.

Turning to `COc1ccc2c3c1O[C@H]1C[C@@H](O)C=C[C@@]31CCN(C)C2` [galantamine], the “inhibitory effect on BChE” value in the data set on BChE is “completely devoid of any inhibitory effect”.

In the case of `CNC(=O)Oc1ccc2c(c1)[C@]1(C)CCN(C)[C@@H]1N2C` [physostigmine], at human plasma BChE [4] (setting [10]), the “mode of inhibition of BChE” value was “Competitive inhibitor”.
